Experimental data taken from patent publication US20100285959A1, “HERBICIDAL MIXTURES” (priority 2006, published 2010).

Experiments:
kochia (KCHSC) [1] = assay: Test 22 growth chamber, postemergence; type: in vivo, Kochia scoparia; details: 25 DAA; 2,4-D or MCPA alone 250 g a.i./ha
Description: (§1) A test was conducted to evaluate the effects on winter barley (HORVW, Hordeum vulgare L.), winter wheat (TRZAW, Triticum aestivum L.), and several weed species of mixtures of Compound 2 with the commercial herbicides (2,4-dichlorophenoxy)acetic acid (2,4-D) and (4-chloro-2-methylphenoxy)acetic acid (MCPA), auxin mimics. […] Plants were treated postemergence at the 2-4 leaf growth stage, except KCHSC, SASKR and STEME which were in the 4-8 leaf growth stage. Each treatment was replicated one time. […] Plants were watered as needed. […] Results are from single replicates.

galium (GALAP) [2] = assay: Test 22 growth chamber, postemergence; type: in vivo, Galium aparine; details: 25 DAA; 2,4-D or MCPA alone 250 g a.i./ha
Description: as §1

[3] = test system: common lambsquarters (CHEAL); assay: Test 23 growth chamber, postemergence; type: in vivo, Chenopodium album; details: 21 DAA; 2,4-D or MCPA alone 250 g a.i./ha
Description: as §1, with “stage,” for “stage, except KCHSC, SASKR”, “each” for “STEME which were in the 4-8 leaf growth stage. Each”, “three times.” for “one time.”, “means of the three” for “from single”

winter wheat (TRZAW) [4] = assay: Test 22 growth chamber, postemergence; type: in vivo, Triticum aestivum; details: 25 DAA; 2,4-D or MCPA alone 250 g a.i./ha
Description: as §1

winter wheat (TRZAW) [5] = assay: Test 20 growth chamber, postemergence; type: in vivo, Triticum aestivum; details: 25 DAA; 2,4-D or MCPA alone 250 g a.i./ha
Description: (§2) A test was conducted to evaluate the effects on winter barley (HORVW, Hordeum vulgare L.) and winter wheat (TRZAW, Triticum aestivum L.) of mixtures of Compound 2 with the commercial herbicides (2,4-dichlorophenoxy)acetic acid (2,4-D) and (4-chloro-2-methylphenoxy)acetic acid (MCPA), auxin mimics. […] Plants were treated postemergence at the 2-leaf growth stage, and each treatment was replicated a total of four times (three times in the loam/sand blend and one time in RediEarth). […] Plants were watered as needed. […] Results are the means of the four replicates.

Russian thistle (SASKR) [6] = assay: Test 23 growth chamber, postemergence; type: in vivo, Salsola kali; details: 21 DAA; 2,4-D or MCPA alone 250 g a.i./ha
Description: as §1, with “stage,” for “stage, except KCHSC, SASKR”, “each” for “STEME which were in the 4-8 leaf growth stage. Each”, “three times.” for “one time.”, “means of the three” for “from single”

common chickweed (STEME) [7] = assay: Test 22 growth chamber, postemergence; type: in vivo, Stellaria media; details: 25 DAA; 2,4-D or MCPA alone 250 g a.i./ha
Description: as §1

redroot pigweed (AMARE) [8] = assay: Test 22 growth chamber, postemergence; type: in vivo, Amaranthus retroflexus; details: 25 DAA; 2,4-D or MCPA alone 250 g a.i./ha
Description: as §1

winter barley (HORVW) [9] = assay: Test 23 growth chamber, postemergence; type: in vivo, Hordeum vulgare; details: 21 DAA; 2,4-D or MCPA alone 250 g a.i./ha
Description: as §1, with “stage,” for “stage, except KCHSC, SASKR”, “each” for “STEME which were in the 4-8 leaf growth stage. Each”, “three times.” for “one time.”, “means of the three” for “from single”

wild mustard (SINAR) [10] = assay: Test 23 growth chamber, postemergence; type: in vivo, Sinapis arvensis; details: 21 DAA; 2,4-D or MCPA alone 250 g a.i./ha
Description: as §1, with “stage,” for “stage, except KCHSC, SASKR”, “each” for “STEME which were in the 4-8 leaf growth stage. Each”, “three times.” for “one time.”, “means of the three” for “from single”

wild mustard (SINAR) [11] = assay: Test 22 growth chamber, postemergence; type: in vivo, Sinapis arvensis; details: 25 DAA; 2,4-D or MCPA alone 250 g a.i./ha
Description: as §1

field violet (VIOAR) = assay: Test 23 growth chamber, postemergence; type: in vivo, Viola arvensis; details: 21 DAA; 2,4-D or MCPA alone 250 g a.i./ha
Description: as §1, with “stage,” for “stage, except KCHSC, SASKR”, “each” for “STEME which were in the 4-8 leaf growth stage. Each”, “three times.” for “one time.”, “means of the three” for “from single”

Russian thistle (SASKR) [12] = assay: Test 22 growth chamber, postemergence; type: in vivo, Salsola kali; details: 25 DAA; 2,4-D or MCPA alone 250 g a.i./ha
Description: as §1

common chickweed (STEME) [13] = assay: Test 23 growth chamber, postemergence; type: in vivo, Stellaria media; details: 21 DAA; 2,4-D or MCPA alone 250 g a.i./ha
Description: as §1, with “stage,” for “stage, except KCHSC, SASKR”, “each” for “STEME which were in the 4-8 leaf growth stage. Each”, “three times.” for “one time.”, “means of the three” for “from single”

[14] = test system: common lambsquarters (CHEAL); assay: Test 22 growth chamber, postemergence; type: in vivo, Chenopodium album; details: 25 DAA; 2,4-D or MCPA alone 250 g a.i./ha
Description: as §1

redroot pigweed (AMARE) [15] = assay: Test 23 growth chamber, postemergence; type: in vivo, Amaranthus retroflexus; details: 21 DAA; 2,4-D or MCPA alone 250 g a.i./ha
Description: as §1, with “stage,” for “stage, except KCHSC, SASKR”, “each” for “STEME which were in the 4-8 leaf growth stage. Each”, “three times.” for “one time.”, “means of the three” for “from single”

galium (GALAP) [16] = assay: Test 23 growth chamber, postemergence; type: in vivo, Galium aparine; details: 21 DAA; 2,4-D or MCPA alone 250 g a.i./ha
Description: as §1, with “stage,” for “stage, except KCHSC, SASKR”, “each” for “STEME which were in the 4-8 leaf growth stage. Each”, “three times.” for “one time.”, “means of the three” for “from single”

winter barley (HORVW) [17] = assay: Test 22 growth chamber, postemergence; type: in vivo, Hordeum vulgare; details: 25 DAA; 2,4-D or MCPA alone 250 g a.i./ha
Description: as §1

winter barley (HORVW) [18] = assay: Test 20 growth chamber, postemergence; type: in vivo, Hordeum vulgare; details: 25 DAA; 2,4-D or MCPA alone 250 g a.i./ha
Description: as §2

field poppy (PAPRH) = assay: Test 23 growth chamber, postemergence; type: in vivo, Papaver rhoeas; details: 21 DAA; 2,4-D or MCPA alone 250 g a.i./ha
Description: as §1, with “stage,” for “stage, except KCHSC, SASKR”, “each” for “STEME which were in the 4-8 leaf growth stage. Each”, “three times.” for “one time.”, “means of the three” for “from single”

winter wheat (TRZAW) [19] = assay: Test 23 growth chamber, postemergence; type: in vivo, Triticum aestivum; details: 21 DAA; 2,4-D or MCPA alone 250 g a.i./ha
Description: as §1, with “stage,” for “stage, except KCHSC, SASKR”, “each” for “STEME which were in the 4-8 leaf growth stage. Each”, “three times.” for “one time.”, “means of the three” for “from single”

kochia (KCHSC) [20] = assay: Test 23 growth chamber, postemergence; type: in vivo, Kochia scoparia; details: 21 DAA; 2,4-D or MCPA alone 250 g a.i./ha
Description: as §1, with “stage,” for “stage, except KCHSC, SASKR”, “each” for “STEME which were in the 4-8 leaf growth stage. Each”, “three times.” for “one time.”, “means of the three” for “from single”

wild chamomile (MATCH) = assay: Test 23 growth chamber, postemergence; type: in vivo, Matricaria chamomilla; details: 21 DAA; 2,4-D or MCPA alone 250 g a.i./ha
Description: as §1, with “stage,” for “stage, except KCHSC, SASKR”, “each” for “STEME which were in the 4-8 leaf growth stage. Each”, “three times.” for “one time.”, “means of the three” for “from single”

wild buckwheat (POLCO) [21] = assay: Test 23 growth chamber, postemergence; type: in vivo, Polygonum convolvulus; details: 21 DAA; 2,4-D or MCPA alone 250 g a.i./ha
Description: as §1, with “stage,” for “stage, except KCHSC, SASKR”, “each” for “STEME which were in the 4-8 leaf growth stage. Each”, “three times.” for “one time.”, “means of the three” for “from single”

wild buckwheat (POLCO) [22] = assay: Test 22 growth chamber, postemergence; type: in vivo, Polygonum convolvulus; details: 25 DAA; 2,4-D or MCPA alone 250 g a.i./ha
Description: as §1

Compound: Cc1cc(Cl)ccc1OCC(=O)O [MCPA]
- Postemergence KCHSC Obs (kochia (KCHSC) [1]): 55
- Postemergence GALAP Obs (galium (GALAP) [2]): 50
- Postemergence CHEAL Obs [3]: 70
- Postemergence TRZAW Obs (winter wheat (TRZAW) [4]): 10
- Postemergence TRZAW Obs (winter wheat (TRZAW) [5]): 18
- Postemergence SASKR Obs (Russian thistle (SASKR) [6]): 43
- Postemergence STEME Obs (common chickweed (STEME) [7]): 50
- Postemergence AMARE Obs (redroot pigweed (AMARE) [8]): 65
- Postemergence HORVW Obs (winter barley (HORVW) [9]): 35
- Postemergence SINAR Obs (wild mustard (SINAR) [10]): 65
- Postemergence SINAR Obs (wild mustard (SINAR) [11]): 75
- Postemergence VIOAR Obs (field violet (VIOAR)): 60
- Postemergence SASKR Obs (Russian thistle (SASKR) [12]): 45
- Postemergence STEME Obs (common chickweed (STEME) [13]): 55
- Postemergence CHEAL Obs [14]: 65
- Postemergence AMARE Obs (redroot pigweed (AMARE) [15]): 63
- Postemergence GALAP Obs (galium (GALAP) [16]): 43
- Postemergence HORVW Obs (winter barley (HORVW) [17]): 25
- Postemergence HORVW Obs (winter barley (HORVW) [18]): 33
- Postemergence PAPRH Obs (field poppy (PAPRH)): 57
- Postemergence TRZAW Obs (winter wheat (TRZAW) [19]): 32
- Postemergence KCHSC Obs (kochia (KCHSC) [20]): 67
- Postemergence MATCH Obs (wild chamomile (MATCH)): 53
- Postemergence POLCO Obs (wild buckwheat (POLCO) [21]): 52
- Postemergence POLCO Obs (wild buckwheat (POLCO) [22]): 40
